Seven compounds from publication PMC12483148 (2025) can be followed below.

What all share (experiment): BLI, steady state fit
For orientation: In BLI a coated tip is dipped into the sample, and binding shifts an interference pattern.

The subject of experiment [1] is FMN riboswitch (3'-biotinylated) (RNA, riboswitch) GAUCUUCAGGGCGGGGUGAAAUUCCCCACCGGCGGUACAGCCCGCGAGCCCAGGAAACUGGGCAGACUUGGUGAAACUCCAAGGCCGACAGUAAAGUCUGGAUGAAAGAAGAUC
Particulars: 150 mM Na+, 2 mM Mg2+, RNA immobilised.

The subject of experiment [2] is SAM-I riboswitch (3'-biotinylated) (RNA, riboswitch) GGCUUAUCAAGAGAGGUGGAGGGACUGGCCCGACGAAACCCGGCAACCAGAAAUGGUGCCAAUUCCUGCAGCGGAAACGUUGAAAGAUGAGCCG
The note with it: 150 mM Na+, 2 mM Mg2+, 10 mM HEPES pH 7.4, 0.005% Surfactant P20, RNA immobilised.

For experiment [3], the system named is TPP riboswitch (3'-biotinylated) (RNA, riboswitch) CAGUACUCGGGGUGCCCUUCUGCGUGAAGGCUGAGAAAUACCCGUAUCACCUGAUCUGGAUAAUGCCAGCGUAGGGAAGUGCUG
The note with it: 150 mM Na+, 2 mM Mg2+, 10 mM HEPES pH 7.4, 0.005% Surfactant P20, RNA immobilised.

The mark [4] stands for this setting: 10 mM HEPES pH 7.4, 0.005% Surfactant P20.

Molecules are shown by their SMILES.

Take `Cc1cc2nc3c(=O)[nH]c(=O)nc-3n(C[C@H](O)[C@H](O)[C@H](O)COP(=O)(O)O)c2cc1C`: in experiment [1] (setting [4]), the “KD,stead” value stood at 0.043 µM.
Consider `C[S+](CC[C@H](N)C(=O)O)C[C@H]1O[C@@H](n2cnc3c(N)ncnc32)[C@H](O)[C@@H]1O` (stereo partly shown), for which, in experiment [2], the “KD,stead” value was found to be 0.17 µM.
`O=c1cc(-c2cccs2)nc(C2CCCNC2)[nH]1` (stereo not shown): in experiment [1] (setting [4]), the “KD,stead” value was found to be 48 µM.
Consider `Nc1ncnc2c1ncn2[C@@H]1O[C@H](CSCC[C@H](N)C(=O)O)[C@@H](O)[C@H]1O`, for which the “KD,stead” value in experiment [2] (highest concentration 500 μM) worked out at 545 µM.
Consider `O=C(NCc1ccc[nH]1)c1ccc2[nH]cnc2c1`, for which the “KD,stead” value in experiment [1] (HBS-P+ pH 7.4, 5% DMSO, apparent) is 14 µM.
For `Cc1ncc(C[n+]2csc(CCOP(=O)(O)OP(=O)(O)O)c2C)c(N)n1`, in experiment [3] (single measurement, low signal-to-noise), the “KD,stead” value is 0.016 µM.
`Cc1ncc(C[n+]2csc(CCO)c2C)c(N)n1`: in experiment [3] (b29 says 10 μM), the “KD,stead” value turned out to be 7.0 µM.
